Results reported in patent publication US20090137637A1, “Tetrazolyl-Methylene Amino Acid Derivatives” (PFIZER INC., priority 2005, published 2009).
Values after ≈ are worked out from the molar mass of the structure shown.

Experiments:
[1] = target: T1, MMP-1 full-length (Homo sapiens, UniProt P03956); test: Thiopeptolide hydrolysis inhibition assay, MMP-1 full-length; type: biochemical; conditions: thiopeptolide substrate; read-out: MMP-1FL IC50
T1 construct: have been assayed with MMP-1 full-length
T1 sequence (P03956 100-469): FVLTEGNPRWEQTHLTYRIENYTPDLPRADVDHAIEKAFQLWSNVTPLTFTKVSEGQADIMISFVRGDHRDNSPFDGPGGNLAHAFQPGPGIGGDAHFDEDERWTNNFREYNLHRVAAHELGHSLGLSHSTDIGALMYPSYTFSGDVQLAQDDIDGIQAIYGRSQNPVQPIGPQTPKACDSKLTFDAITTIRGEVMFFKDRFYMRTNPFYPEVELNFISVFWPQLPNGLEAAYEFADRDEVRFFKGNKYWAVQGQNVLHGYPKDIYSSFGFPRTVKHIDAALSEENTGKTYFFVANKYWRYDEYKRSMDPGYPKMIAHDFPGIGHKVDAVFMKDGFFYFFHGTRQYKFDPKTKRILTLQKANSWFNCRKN
Excerpt: (§1) In general, the MMP inhibition assays measure the amount by which a test compound reduces the hydrolysis of a thiopeptolide substrate catalyzed by a matrix metalloproteinase enzyme. Such assays are described in detail by Ye et al., in Biochemistry, 1992;31(45):11231-11235, which is incorporated herein by reference.
(§2) Thiopeptolide substrates show virtually no decomposition or hydrolysis at or below neutral pH in the absence of a matrix metalloproteinase enzyme. A typical thiopeptolide substrate commonly utilized for assays is Ac-Pro-Leu-Gly-thioester-Leu-Leu-Gly-OEt. A 100 μL assay mixture will contain 50 mM of N-2-hydroxyethylpiperazine-N′-2-ethanesulfonic acid buffer (“HEPES,” pH 7.0), 10 mM CaCl2, 100 μM thiopeptolide substrate, and 1 mM 5,5′-dithio-bis-(2-nitro-benzoic acid) (DTNB). The thiopeptolide substrate concentration may be varied, for example from 10 to 800 μM to obtain Km and Kcat values. The change in absorbance at 405 nm is monitored on a Thermo Max microplate reader (molecular Devices, Menlo Park, Calif.) at room temperature (22° C.). The calculation of the amount of hydrolysis of the thiopeptolide substrate is based on E412=13600 M^−1 cm^−1 for the DTNB-derived product 3-carboxy-4-nitrothiophenoxide. Assays are carried out with and without matrix metalloproteinase inhibitor compounds, and the amount of hydrolysis is compared for a determination of inhibitory activity of the test compounds.
(§3) Test compounds were evaluated at various concentrations in order to determine their respective IC50 values, the micromolar concentration of compound required to cause a 50% inhibition of catalytic activity of the respective enzyme.
(§4) The test described above for the inhibition of MMP-13 may also be adapted and used to determine the ability of the compounds of formula (I) to inhibit the matrix metalloproteases MMP-1, MMP-2, MMP-3, MMP-7, MMP-9, MMP-12, MMP-14, and MMP-17.
(§5) Certain compounds of formula (I) have been assayed with MMP-1 full-length, MMP-2 full-length, MMP-3 catalytic domain, MMP-7 full-length, MMP-8 catalytic domain, MMP-9 full-length, and MMP-12 catalytic domain.

[2] = target: T2, MMP-12 catalytic domain (Homo sapiens, UniProt P39900); test: Thiopeptolide hydrolysis inhibition assay, MMP-12 catalytic domain; type: biochemical; conditions: thiopeptolide substrate; read-out: MMP-12CD IC50
T2 construct: MMP-12 catalytic domain
T2 sequence (P39900 106-263 limits assumed, species assumed): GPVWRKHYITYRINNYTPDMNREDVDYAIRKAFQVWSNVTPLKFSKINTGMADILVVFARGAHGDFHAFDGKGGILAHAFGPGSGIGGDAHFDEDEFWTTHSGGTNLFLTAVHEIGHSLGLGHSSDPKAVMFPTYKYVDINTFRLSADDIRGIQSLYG
Excerpt: as §1, §2, §3, §4, §5

[3] = Solubility in pH 6.5 aqueous phosphate buffer (Chemical Method 1, PDS solubility); type: physicochemical; conditions: thermodynamic from solid; saturated solution in pH 6.5 aqueous phosphate buffer, 5% glyme, UV-visible absorbance
Description: Solubility of a test compound of the present invention refers to solubility of the compound in a solvent mixture containing ethylene glycol dimethylether (“glyme”) and pH 6.5 aqueous phosphate buffer. The solubility was determined by measuring ultraviolet-visible absorbance of a saturated solution of the compound and comparing the absorbance value to absorbance values obtained for four standard solutions of the compound having known concentrations plotted on a 4-point ultraviolet-visible standard curve.
First, a saturated solution of the test compound of the present invention was prepared by adding from about 2- to about 5-mg of the compound to a 96-well plate and adding a volume of pH 6.5 aqueous phosphate buffer, sonicating the mixture for about 10 minutes, and then allowing it to equilibrate overnight (typically 12 to 24 hours). The saturated solution was visually inspected to ensure the presence of particles, and then filtered to give a filtrate of the saturated solution. The filtrate of the saturated solution and a blank (pH 6.5 aqueous phosphate buffer containing no test compound) were then transferred into separate wells in a 96-well UV-transparent disposable plate, and a small amount of glyme was added to each well to give 5% glyme concentration per well.
Standard solutions of the test compound were prepared by dissolving a known amount of the test compound in a known volume of 75/25 volume/volume (“v/v”) glyme/water, and diluting this solution into four different concentrations in 96-well plates with additional 75/25 v/v glyme/water. Then, aliquots from each of the four standard solutions were also transferred to the 96-well UV-transparent disposable plate containing pH 6.5 aqueous phosphate buffer until the glyme concentration in each well was 5%.
The prepared 96-well plate was transferred to a 96-well ultraviolet-visible plate reader, and the wells were scanned over wavelengths of from 220 nm to 350 nm with a step size of 2 nm. The ultraviolet-visible data (i.e., data generated at the same wavelength) were electronically exported to a spreadsheet and absorbance data for the filtrate of the saturated solution measured at one wavelength (i.e., the data that had the best linear fit as calculated by the highest regression coefficient, typically 0.98 or higher) and the corresponding standards absorbance data measured at the same wavelength were plotted as a standard absorbance-concentration curve based on the Lambert-Beer law. The solubility (i.e., saturation concentration) was then back calculated by comparing the absorbance of the filtrate of the saturated solution to the absorbance of the standard solutions of known concentrations at the same wavelength.

[4] = target: T3, MMP-3 catalytic domain (Homo sapiens, UniProt P08254); test: Thiopeptolide hydrolysis inhibition assay, MMP-3 catalytic domain; type: biochemical; conditions: thiopeptolide substrate, MES pH 6.0; read-out: MMP-3CD IC50
T3 construct: MMP-3 catalytic domain
T3 sequence (P08254 100-272 limits assumed, species assumed): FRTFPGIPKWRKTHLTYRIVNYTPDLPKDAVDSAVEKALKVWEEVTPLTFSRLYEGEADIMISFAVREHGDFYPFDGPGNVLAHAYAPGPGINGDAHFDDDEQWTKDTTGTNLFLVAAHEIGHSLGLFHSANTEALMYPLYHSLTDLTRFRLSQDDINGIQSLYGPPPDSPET
Excerpt: as §1, §2, §3
The assay buffer used with MMP-3CD was 50 mM N-morpholinoethane sulfonate (“MES”) at pH 6.0 rather than the HEPES buffer at pH 7.0 described above.
The test described above for the inhibition of MMP-13 may also be adapted and used to determine the ability of the compounds of formula (I) to inhibit the matrix metalloproteases MMP-1, MMP-2, MMP-3, MMP-7, MMP-9, MMP-12, MMP-14, and MMP-17. […]

[5] = target: T4, MMP-9 full-length (Homo sapiens, UniProt P14780); test: Thiopeptolide hydrolysis inhibition assay, MMP-9 full-length; type: biochemical; conditions: thiopeptolide substrate; read-out: MMP-9FL IC50
T4 construct: MMP-9 full-length
T4 sequence (P14780 94-707, species assumed): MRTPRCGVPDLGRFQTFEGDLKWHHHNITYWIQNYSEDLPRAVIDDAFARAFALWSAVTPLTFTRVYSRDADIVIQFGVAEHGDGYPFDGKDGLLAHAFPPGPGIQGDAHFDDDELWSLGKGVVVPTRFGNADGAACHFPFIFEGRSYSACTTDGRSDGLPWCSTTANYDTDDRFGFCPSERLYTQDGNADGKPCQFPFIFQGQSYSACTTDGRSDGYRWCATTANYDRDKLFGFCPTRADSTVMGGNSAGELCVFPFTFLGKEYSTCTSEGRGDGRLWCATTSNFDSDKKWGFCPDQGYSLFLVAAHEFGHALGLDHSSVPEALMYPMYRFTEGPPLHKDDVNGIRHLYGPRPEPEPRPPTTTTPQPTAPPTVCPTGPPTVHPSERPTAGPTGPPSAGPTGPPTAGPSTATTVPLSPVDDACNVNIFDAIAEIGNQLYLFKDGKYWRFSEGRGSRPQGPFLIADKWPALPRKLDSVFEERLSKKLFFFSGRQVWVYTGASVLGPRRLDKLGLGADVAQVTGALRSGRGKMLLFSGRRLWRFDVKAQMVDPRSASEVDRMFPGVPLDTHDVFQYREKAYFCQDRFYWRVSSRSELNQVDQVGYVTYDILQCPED
Excerpt: as §1, §2, §3, §4, §5

[6] = target: T5, MMP-2 full-length (Homo sapiens, UniProt P08253); test: Thiopeptolide hydrolysis inhibition assay, MMP-2 full-length; type: biochemical; conditions: thiopeptolide substrate; read-out: MMP-2FL IC50
T5 construct: MMP-2 full-length
T5 sequence (P08253 110-660): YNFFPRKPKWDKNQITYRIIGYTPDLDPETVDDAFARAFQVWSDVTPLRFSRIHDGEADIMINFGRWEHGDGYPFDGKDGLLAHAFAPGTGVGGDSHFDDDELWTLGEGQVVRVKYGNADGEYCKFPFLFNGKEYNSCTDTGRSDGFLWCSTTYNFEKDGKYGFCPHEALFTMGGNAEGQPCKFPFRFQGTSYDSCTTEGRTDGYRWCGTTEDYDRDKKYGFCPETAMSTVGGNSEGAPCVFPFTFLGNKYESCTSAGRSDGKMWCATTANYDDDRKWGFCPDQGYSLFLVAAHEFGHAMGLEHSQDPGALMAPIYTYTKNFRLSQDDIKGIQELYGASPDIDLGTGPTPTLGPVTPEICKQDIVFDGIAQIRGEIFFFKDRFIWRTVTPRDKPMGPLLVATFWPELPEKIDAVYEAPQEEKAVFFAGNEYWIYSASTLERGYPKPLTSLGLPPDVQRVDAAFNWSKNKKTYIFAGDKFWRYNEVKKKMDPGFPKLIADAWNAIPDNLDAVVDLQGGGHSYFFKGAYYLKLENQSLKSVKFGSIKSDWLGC
Excerpt: as §1, §2, §3, §4, §5

[7] = target: T6, MMP-7 full-length (Homo sapiens, UniProt P09237); test: Thiopeptolide hydrolysis inhibition assay, MMP-7 full-length; type: biochemical; conditions: thiopeptolide substrate; read-out: MMP-7FL IC50
T6 construct: MMP-7 full-length
T6 sequence (P09237 95-267): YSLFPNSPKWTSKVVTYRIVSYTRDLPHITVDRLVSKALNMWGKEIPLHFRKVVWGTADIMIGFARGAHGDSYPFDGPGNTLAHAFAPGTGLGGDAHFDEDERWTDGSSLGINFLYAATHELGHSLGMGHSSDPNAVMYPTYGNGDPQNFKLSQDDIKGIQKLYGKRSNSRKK
Excerpt: as §1, §2, §3, §4, §5

[8] = target: MMP-13 catalytic domain (MMP-13CD) (Homo sapiens, UniProt P45452); test: Thiopeptolide hydrolysis inhibition assay, MMP-13 catalytic domain; type: biochemical; conditions: thiopeptolide substrate, HEPES pH 7.0, 22° C.
Excerpt: as §1
Some of the particular methods described below use the catalytic domain of the MMP-13 enzyme, namely matrix metalloproteinase-13 catalytic domain (“MMP-13CD”), rather than the corresponding full-length enzyme, MMP-13. It has been shown previously by Ye Qi-Zhuang, Hupe D., and Johnson L. (Current Medicinal Chemistry, 1996;3:407418) that inhibitor activity against a catalytic domain of an MMP is predictive of the inhibitor activity against the respective full-length MMP enzyme.
as §2, §3

[9] = target: T7, MMP-8 catalytic domain (Homo sapiens, UniProt P22894); test: Thiopeptolide hydrolysis inhibition assay, MMP-8 catalytic domain; type: biochemical; conditions: thiopeptolide substrate; read-out: MMP-8CD IC50
T7 construct: MMP-8 catalytic domain
T7 sequence (P22894 100-262 limits assumed, species assumed): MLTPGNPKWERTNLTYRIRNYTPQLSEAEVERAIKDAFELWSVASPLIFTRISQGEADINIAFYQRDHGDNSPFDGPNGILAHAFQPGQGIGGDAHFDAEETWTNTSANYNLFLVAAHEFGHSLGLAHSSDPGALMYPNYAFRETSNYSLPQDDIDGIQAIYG
Excerpt: as §1, §2, §3, §5

Row | IC50 [1] [µM] | IC50 [2] [µM] | solubility [3] [µg/mL] | IC50 [4] [µM] | IC50 [5] [µM] | IC50 [6] [µM] | IC50 [7] [µM] | IC50 [8] [µM] | IC50 [9] [µM] | SMILES
1 | > 100 | > 100 |  | > 100 | > 100 | > 100 | > 100 | 5.2 | > 100 | O=C(O)C1CCCN(CCCn2nnc(-c3cccc(C#CCc4ccc(F)cc4)c3)n2)C1 (stereo not drawn) [Example 4]
2 |  |  | 880 (≈ 2380 µM) |  |  |  |  | 4.5 |  | Cc1cc(-c2nnn(CC(=O)O)n2)cc(C(=O)NCc2ccc(F)cc2)n1 [Example I2, {5-[2-(4-fluoro-benzylcarbamoyl)-6-methyl-pyridin-4-yl]-tetrazol-2-yl}-acetic acid]

The next lines start with the molecule.

Row | SMILES | IC50 [1] [µM] | IC50 [2] [µM] | solubility [3] [µg/mL] | IC50 [4] [µM] | IC50 [5] [µM] | IC50 [6] [µM] | IC50 [7] [µM] | IC50 [8] [µM] | IC50 [9] [µM]
3 | Cc1cc(-c2nnn(CC(=O)NCC(=O)O)n2)cc(C(=O)NCc2ccc(F)cc2)n1 [Example 1, (2-{5-[2-(4-fluoro-benzylcarbamoyl)-6-methyl-pyridin-4-yl]-tetrazol-2-yl}-acetylamino)-acetic acid] | > 100 | > 100 | 580 (≈ 1360 µM) | > 100 | > 100 | > 100 | > 100 | 0.041 | > 100
4 | Cc1cc(-c2nnn(CC(=O)NCCC(=O)O)n2)cc(C(=O)NCc2ccc(F)cc2)n1 [Example 2, 3-(2-{5-[2-(4-Fluoro-benzylcarbamoyl)-6-methyl-pyridin-4-yl]-tetrazol-2-yl}-acetylamino)-propionic acid] | > 100 | > 100 | 220 (≈ 498 µM) | > 100 | > 100 | 75 | > 100 | 0.039 | > 100
5 | Cc1cc(-c2nnn(CC(=O)N3CCCC3C(=O)O)n2)cc(C(=O)NCc2ccc(F)cc2)n1 (stereo not drawn) [Example 3] |  |  | 1200 (≈ 2570 µM) |  |  |  |  | 1.5 | 
